Reference: patent US20060257875A1, “Affinity screening using "one-bead-one-compound" libraries” (Carlsberg A/S, priority 2003, published 2006)
Non-standard residues stand in square brackets, D forms with d. No end group written: not given here. T(Sa) = sialic acid threonine lactam (threonine bearing sialic acid, its amine closed onto the sugar)

Assays:
[1] = test system: normal/healthy myocyte proteins; assay: Solid phase screening of small molecule biaryl Library 7 with labeled myocyte proteins; assay type: binding, neonatal Wistar rats; details: Normal Myocytes
Method: Myocytes were prepared from 1 to 5 day old neonatal Wistar rats (University of Copenhagen) according to literature procedure described in Busk et al., 2002, Cardiovasc. Res., 56: 64-75 and plated into eight P10 culture plates at 6 million cells/plate.
In another case, fluorescent dye Cyanine 3 (Cy 3) (Molecular Probes) was used to label the healthy/basal cells while Cyanine 2 (Cy 2) (Molecular Probes) was used to label the PE-treated cells. The labeling procedures were carried out according to the manufacturer's protocol. The protein solutions (0.35 mL, 100 μg for PE cells and 0.41 mL, 100 μg for basal cells) were dialyzed against a solution of 10 mM phosphate buffer, 0.15 M NaCl, pH 7.5 and then 1 M NaHCO3 (0.03-0.04 mL) was added to obtain a final pH between 8.0-9.0. For efficient labeling, […] fluor (5 μL solution was prepared by addition of […] of reconstituted fluorophore solution [1 nmol μL] and 3 μL of dry DMF) was used to label 50 μg of protein. The fluorophore and the protein solution are mixed thoroughly by vortexing. The samples are then centrifuged briefly in a microfuge and left on ice for 30 min in the dark. To stop the reaction, 10 mM lysine (1 μL) was added to the samples and the samples were mixed by vortexing and centrifuged briefly in a microfuge. The samples were left on ice for 10 min in the dark. The labeled protein solutions were dialyzed extensively against 10 mM phosphate buffer, 0.15 M NaCl, pH 7.5, to remove excess dye. Labeled samples were stored for at −70° C. in the dark until further use.
Alternatively, the fluorescent ligand library beads containing bound protein obtained as described in Examples 47, 48, 49 and 51 were sorted using a COPAS (250) NF Bead Sorter (Union Biometrica, Somerville, Mass.) equipped with a dual detector. Both the cyanine dyes used in the labeling procedure, namely Cy 2 (emission wavelength—510 nm) and Cy 3 (emission wavelength—570 nm) were simultaneously excited at […] The bead selection window was then set-up such that all beads containing significant green fluorescence and no red flourescence were isolated. The unselected beads were then resorted to obtain beads containing red fluorescence (proteins from basal cells). The selected red and green fluorescent beads were then sorted into brightly and less brightly fluorescent beads, to give an indication of either the strength of binding of the ligand to a particular protein or the amount of protein present in the sample binding to the ligand.
(§1) Ligands can be completely or partially identified by MALDI_TOF-MS whether or not the library is synthesized by ladder synthesis. […] The ligand is cleaved from the resin bead depending on the type of linker used. […] Peptide fragments (ladder synthesis) or single compounds were extracted from the bead with 0.5 AL CH3CN, then 0.5 FL 70% CH3CN/H2O. […] In the case of the acid labile Rink linker (Library 7), the compound was released from the bead by treatment with 95% TFA or 30 min. The TFA solution was evaporated and the cleaved compounds were extracted in 2 μL 70% acetonitrile+0.1% TFA. This mixture was then transferred to a stainless steel disc to which 0.4 μL of CHC matrix+1.0% TFA was added. An additional 0.4 μL of CHC matrix+1.0% TFA was added to complete sample application.
A typical analysis employed 100-300 laser shots. […] The possible identity of the ligand was determined (Narrowed down) by comparing the recorded mass of the ligand with the masses of all possible compounds formed in the library. […]

[2] = test system: Serum induced Myocytes proteins; assay: Solid phase screening of Library 5 with labeled myocyte protein; assay type: binding, neonatal Wistar rats
[3] = test system: E. coli membrane proteins; assay: Solid phase screening of Library 2 with labeled E. coli membrane proteins; bound proteins identified by tryptic digest and peptide mass fingerprinting; assay type: binding, Escherichia coli DH 5α-136; details: Library 2 ligand on bead
Method: A 400 mL culture of Escherichia coli DH 5α-136 (Carlsberg Research Center Collection) was prepared according to the procedures described in Hanahan, 1985, In: DNA Cloning, Vol 1, Glover, D., ed., IRL Press Ltd, pp. 109-135. […]. The media containing extracellular protein was retained and the pellet washed once with PBS, pH 7.6 (cellular weight=2.22g).
Isolation of E. coli membrane proteins was achieved through modification of published literature procedures: Auer, et al., 2001, Biochemistry, 40:6628-6635, and Molloy, et al., 2000, Eur. J. Biochem. 267:2871-2881. After incubation of E. coli cells for 2 days, washed cells were scraped from plates and centrifuged as described above for Example 10. The cell pellet (approximately 1 g) was suspended in 50 mM Tris HCl, pH 7.5 and pressed (2×) in a French Press at 1500 Psi. The resulting suspension was centrifuged at 2500×g for 10 minutes. The ice cold supernatant was diluted with 2.5 ml of ice-cold 0.1 M sodium carbonate buffer 11 and the solution stirred on ice for 1 hour. Ultracentrifugation was then carried out at 115, 000×g for 1 to 1.5 hours at 4° C., yielding Pellet 1 and Supernatant 1. The membrane pellet 1 was resuspended in 50 mM Tris HCl, pH 7.5 and the pellet was recollected after centrifugation for an additional 20 minutes at 115,000×g, yielding Pellet 2 and supernatant 2. Pellet 2 was solubilized in 50 mM Tris HCl, pH 7.5 containing 10 MM imidazole, 0.5 mM PMSF, 20% glycerol, and 1% Dodecyl Maltoside (DM) or 33 mM Octyl Glucoside (OG) for 30 mninutes at 4° C. The suspension was then centrifuged for 10,000 g for 30 minutes. The pellet and supernatant obtained were labeled Pellet 3 and supernatant 3.
The protein was labeled with amino reactive succinylanthranilate dye (blue) DDM (0.49 mg dye) and OG (0.03 mg dye) according to the same protocol used in the extracellular labeling described above for Example 12. The labeling stopping reaction (hydroxylamine hydrochloride addition) was not used in this case, to avoid dilution of the protein. The mixture was dialyzed overnight against 10 mM PBS buffer, pH 6.8 containing 0.01 MM ZnCl2, 0.01 mM CaCl2, 0.01 mM MnCl2, and 0.01 mM MnSO4, against a three time buffer change.
The ligand library was then washed, and E. coli labeled membrane protein, prepared as described above for Example 13, was added (0.1 ml). The ligand library and protein mixture was incubated overnight at room temperature.
as §1
A typical analysis employed 100-300 laser shots. […] A typical analysis employed 200-300 laser shots. The possible identity of the ligand was determined (Narrowed down) by comparing the recorded mass of the ligand with the masses of all possible compounds formed in the library. […]

Molecule: O=C(O)CC(NC(=O)c1ccc(-c2ccco2)o1)c1ccc(-c2ccccc2)cc1 (centres unmarked)
- Identified Protein(s) [1]: Thyroid receptor interacting protein 11 (TRIP- 11,Q15643); Unnamed protein product (gi 26338976).

Molecule: CC(C)N1CCCC(CN[C@H]2CCCCN(CC(=O)O)C2=O)N2C(=O)c3ccccc3[C@H]12 (some centres unmarked) [HY9]
- Identified Protein(s) [2]: Zinc finger protein 339 (Q9BRPO); DNA repair protein RAD52 homolog (P43351).

Molecule: COc1ccc(Br)c(OC)c1C(=O)N1CCC(C(=O)O)(c2ccccc2)CC1 [drawing 209]
- Identified Protein(s) [1]: Cutochrome P450 2C31 (CYPIIC31) (CPCV_CAPAE,Q29478); Fatty acid-binding protein, (FABPI, P0293); Similar to the alpha subunit of protein kinase CK2 (gi 28527943).

Molecule: T(Sa)-H-I-G-Y
- Identified Protein(s) [3]: 16129807/15831818) (LA, M)

Molecule: O=C(NC1(C(=O)O)CCc2ccccc2C1)c1cccc(Br)n1 (centres unmarked)
- Identified Protein(s) [1]: Gap junction beta-5 protein (Connexin 31.1), (Q02739); Hypothetical protein XP1'288677 )gi 208598980).

Molecule: CC(=O)N(C[C@@H]1CN(C(C)C)[C@H]2c3ccccc3C(=O)N12)[C@H]1CCCCN(CC(=O)O)C1=O [HY7]
- Identified Protein(s) [2]: Zinc finger protein 339 (Q9BRPO); DNA repair protein RAD52 homolog (P43351).

Molecule: CCC(C)C(=O)N(C[C@@H]1CN(C(C)C)[C@H]2c3ccccc3C(=O)N12)[C@H]1CCCCN(CC(=O)O)C1=O (some centres unmarked) [HY8]
- Identified Protein(s) [2]: Zinc finger protein 339 (Q9BRPO); DNA repair protein RAD52 homolog (P43351).

Molecule: T(Sa)-H-W-H-L ([T(Sa)]HWHL)
- Identified Protein(s) [3]: (NaDPH) (gi 2121143).

Molecule: T(Sa)-F-G-L-M
- Identified Protein(s) [3]: (M).

Molecule: T(Sa)-H-W-V-V
- Identified Protein(s) [3]: (M).

Molecule: COc1ccc(Br)c(OC)c1C(=O)N1CCC(C(=O)O)(c2ccccc2)CC1 [drawing 202]
- Identified Protein(s) [1]: Centaurin gamma (3) (Q96P47); Poly [ADP-ribose] poly- merase-1 (PARP-1) (ADPRT) (NAD(+) ADP- ribosyltransferase-1) (Poly[ADP-ribose] synthease-1) (P09874); Aortic preferentially expressed protein 1 (APEG-1) Aortic preferentially expressed protein 1 (APG1_RAT, Q63638).

Molecule: T(Sa)-F-V-W-H
- Identified Protein(s) [3]: (P).

Molecule: COc1ccc(Br)c(OC)c1C(=O)N[C@@H](Cc1c[nH]c2ccccc12)C(=O)O
- Identified Protein(s) [1]: Cutochrome P450 2C31 (CYPIIC31) (CPCV_CAPAE,Q29478); Fatty acid-binding protein, (FABPI, P0293); Similar to the alpha subunit of protein kinase CK2 (gi 28527943).

Molecule: CC(=O)N(C[C@@H]1CN(Cc2ccc(C(=O)O)cc2)[C@H]2c3ccccc3C(=O)N12)C1(C(=O)O)CCCC1 [HY6]
- Identified Protein(s) [2]: Myosin chain (Q63358); NF-kappa B-repressing factor (Transcription factor ITBA4 protein) (O15226).
